Source: patent US9765054B2, “Histone deacetylase inhibitors and compositions and methods of use thereof” (CHDI Foundation, Inc., priority 2011, dated 2017)

Assays:
[1] = target: human catalytic domain HDAC4 protein (Homo sapiens, UniProt P56524, A743G/DEL730-739/DEL742-742); experiment: Inhibition of HDAC4 catalytic domain enzymatic activity, Boc-Lys(Tfa)-AMC substrate, fluorescence; conditions: Class IIa selective substrate Boc-Lys(Tfa)-AMC, read-out: Biochemical HDAC-4 IC50;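 further: trypsin releases AMC from deacetylated substrate, fluorescence tracks enzyme activity, 15 min reaction at 37 °C, 100% activity defined by DMSO-only control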
[2] = system: cellular histone deacetylase enzymatic activity in Jurkat E6-1 cells; experiment: Inhibition of cellular HDAC activity, Boc-Lys(Tfa)-AMC substrate, in Jurkat E6-1 cells; type: cell-based; conditions: Homo sapiens, Class IIa selective substrate Boc-Lys(Tfa)-AMC
Text: The potency of Class IIa Histone Deacetylase (HDAC) inhibitors is quantified by measuring the cellular histone deacetylase enzymatic activity using the Class IIa selective substrate, Boc-Lys(Tfa)-AMC. After penetration in Jurkat E6-1 cells, the substrate is deacetylated to Boc-Lys-AMC. After cell lysis and cleavage by trypsin, the fluorophore AMC is released from the deacetylated substrate only. The fluoresence of the sample is directly related to the histone deacetylase activity in the sample.
Jurkat E6.1 Cell Culture and Plating.
Jurkat E6.1 cells are cultured according to standard cell culture protocols in Jurkat E6.1 Growth Media (RPMI without phenol red, 10% FBS, 10 mM HEPES, and 1 mM Sodium Pyruvate). Jurkat E6.1 cells are counted using a Coulter Counter and resuspended in Jurkat E6.1 growth media at a concentration of 75,000 cells/35 μl. 35 μl or 75,000 cells is seeded into Greiner microtitre assay plates. The plates are then incubated at 37° C. and 5% CO2 while other assay components are being prepared.
Serially Dilute HDAC Inhibitor Compounds.
Serial dilutions of the HDAC inhibitors and control reference compound (1-(5-(3-((4-(1,3,4-oxadiazol-2-yl)phenoxy)methyl)-1,2,4-oxadiazol-5-yl)thiophen-2-yl)-2,2,2-trifluoroethanone) are made by first resuspending the lyophilized compound to a final concentration of 10 mM in 100% DMSO. Stocks of 70 μl aliquots of the 10 mM compound in DMSO are prepared and stored at −20° C. From one stock aliquot of each compound to be tested and the reference compound, a 16-point serial dilution is prepared according to Table 7 using a 125 μl 16-channel Matrix multi-channel pipette.
2 μl (200×) of each diluted solution and each control (full activity: 100% DMSO alone or full inhibition 1 mM) is stamped into V-bottom polypropylene 384-well compound plates using either the Bravo, Janus, or […] 16-channel Matrix multi-channel pipette. Each well with the 200× compound solution is diluted 1:20 by the addition of 38 μl Jurkat assay buffer+DMSO (9.5% DMSO, RPMI without phenol red, 0.09% FBS, 9 mM Hepes, and 0.9 mM Sodium Pyruvate equilibrated to room temperature)
Prepare 5× (500 μM) Boc-Lys(Tfa)-AMC Substrate.
5× (500 μM) substrate is prepared just prior to the addition to the assay. The 5× substrate is prepared by diluting a 100 mM Boc-Lys(Tfa)-AMC in DMSO solution 1:200 by adding it drop-wise to Jurkat assay medium (RPMI without phenol red, 0.1% FBS, 10 mM Hepes, and 1 mM Sodium Pyruvate equilibrated to 37° C.) while vortexing at slow speed to prevent precipitation.
10 ml of 3× lysis buffer is prepared with 8.8 ml of 3× stock lysis buffer (50 mM Tris-HCl, pH 8.0, 137 mM NaCl, 2.7 mM KCl, 1 mM MgCl2, 1% Nonidet P40 Substitute equilibrated to room temperature) and 1.2 ml of 3 mg/ml Trypsin equilibrated to room temperature.
5 μl of each solution of 1:20 diluted compound from above is transferred to the Greiner microtitre assay plates with 75,000 cells/well using the Bravo. Cells are then incubated for 2 hours at 37° C. and 5% CO2. The assay is then started by adding 10 μl of 5× (500 μM) substrate to the assay plate using either the Bravo or 16-channel Matrix multi-channel pipette. The cells are then incubated for 3 hours at 37° C. and 5% CO2. Next, 25 μl of 3× lysis buffer is added to each well using either the 125 μl 16 channel pipette or the Bravo. The assay plate is then incubated overnight (15-16 hours) at 37° C. and 5% CO2. The following day, the plates are shaken on an orbital shaker for 1 minute at 900 rpm. Finally the top read fluorescence (Excitation: 355 nm, Emission: 460 nm) is measured using PerkinElmer EnVision.

SMILES	IC50 [1]	IC50 [2]
O=C(NO)[C@@H]1[C@H](c2ccccc2)[C@H]1c1ccccc1F (racemic) [Compound 11b, (1R*,2R*,3R*)-2-(2-Fluorophenyl)-N-hydroxy-3-phenylcyclopropanecarboxamide]	320 nM	1830 nM
O=C(NO)[C@@H]1[C@H](c2ccccc2)[C@H]1c1cnc2ccccn12 [Compound 115, (1R,2R,3R)—N-hydroxy-2-(imidazo[1,2-a]pyridin-3-yl)-3-phenylcyclopropanecarboxamide]	550 nM	6660 nM
O=C(NO)[C@@H]1[C@H](c2ccccc2)[C@H]1c1ccc2c(c1)OC(F)(F)O2 [Compound 28e, (1R,2R,3R)-2-(2,2-Difluorobenzo[d][1,3]dioxol-5-yl)-N-hydroxy-3-phenylcyclopropanecarboxamide]	120 nM	2030 nM
O=C(NO)[C@@H]1[C@H](c2ccc(F)cc2)[C@H]1c1ccnc(C2CC2)c1 [Compound 28d, (1R,2R,3R)-2-(2-Cyclopropylpyridin-4-yl)-3-(4-fluorophenyl)-N-hydroxycyclopropanecarboxamide]	120 nM	790 nM
O=C(NO)[C@@H]1[C@H](c2ccccc2)[C@H]1c1ccc(C2=CCN(Cc3ccccc3)CC2)cc1 [Compound 71, (1R,2R,3R)-2-(4-(1-Benzyl-1,2,3,6-tetrahydropyridin-4-yl)phenyl)-N-hydroxy-3-phenylcyclopropanecarboxamide]	350 nM	750 nM
Cc1ccn(-c2ccc([C@H]3[C@H](C(=O)NO)[C@@H]3c3ccccc3)cc2)n1 [Compound 79, (1R,2R,3R)—N-Hydroxy-2-(4-(3-methyl-1H-pyrazol-1-yl)phenyl)-3-phenylcyclopropanecarboxamide]	90 nM	650 nM
O=C(NO)[C@H]1[C@H](c2cc(Cl)c3c(c2)OCCO3)[C@H]1c1ccccc1F [Compound 25f, (1S,2R,3R)-2-(8-Chloro-2,3-dihydrobenzo[b][1,4]dioxin-6-yl)-3-(2-fluorophenyl)-N-hydroxycyclopropanecarboxamide]	30 nM	240 nM
O=C(NO)[C@@H]1[C@H](c2ccccc2)[C@H]1c1ccc(-n2ccnc2)cc1 (racemic) [Compound 42, (1R*,2R*,3R*)-2-(4-(1H-imidazol-1-yl)phenyl)-N-hydroxy-3-phenylcyclopropanecarboxamide]	200 nM	1630 nM
C[C@@]1(C(=O)NO)[C@H](c2ccccc2)[C@H]1c1ccc(-c2ncc(F)cn2)cc1 (racemic) [Compound 63, (1R*,2S*,3S*)-2-(4-(5-Fluoropyrimidin-2-yl)phenyl)-N-hydroxy-1-methyl-3-phenylcyclopropanecarboxamide]	270 nM	1550 nM
CC(C)Oc1ccccc1[C@@H]1C(c2ccccc2)[C@H]1C(=O)NO (mixture of isomers) [Compound 11a, (1R,2R,3R*)—N-Hydroxy-2-(2-isopropoxyphenyl)-3-phenylcyclopropanecarboxamide]	20600 nM	50000 nM
O=C(NO)[C@@H]1[C@H](c2ccccc2)[C@H]1c1ccn2cc(C(F)(F)F)nc2c1 [Compound 109, (1R,2R,3R)—N-Hydroxy-2-phenyl-3-(2-(trifluoromethyl)imidazo[1,2-a]pyridin-7-yl)cyclopropanecarboxamide]	230 nM	2500 nM
O=C(NO)[C@H]1[C@H](c2ccccc2)[C@H]1c1ccccc1F (racemic) [Compound 13, (1S*,2R*,3R)-2-(2-Fluorophenyl)-N-hydroxy-3-phenylcyclopropanecarboxamide]	940 nM	7670 nM
O=C(NO)[C@@H]1[C@H](c2ccccc2)[C@H]1c1cccc(Br)c1 (racemic) [Compound 16b, (1R*,2R*,3R*)-2-(3-Bromophenyl)-N-hydroxy-3-phenylcyclopropanecarboxamide]	70 nM	1410 nM
CC(C)c1nc2ccc([C@H]3[C@H](C(=O)NO)[C@@H]3c3ccccc3)cc2o1 [Compound 39, (1R,2R,3R)—N-hydroxy-2-(2-isopropylbenzo[d]oxazol-6-yl)-3-phenylcyclopropanecarboxamide]	20 nM	220 nM

Now from value to compound:

IC50 [1]	IC50 [2]	SMILES
990 nM	8850 nM	O=C(NO)[C@@H]1[C@H](c2ccccc2)[C@H]1c1ccc(-c2cccc(OCc3ccccc3)c2)cc1 [Compound 54a, (1R,2R,3R)-2-(3′-(Benzyloxy)-[1,1′-biphenyl]-4-yl)-N-hydroxy-3-phenylcyclopropanecarboxamide]
20 nM	420 nM	O=C(NO)[C@@H]1[C@H](c2cccc(F)c2)[C@H]1c1ccnc(C2CC2)c1 [Compound 100b, (1S,2R,3R)-2-(2-Cyclopropylpyridin-4-yl)-3-(3-fluorophenyl)-N-hydroxycyclopropanecarboxamide]
1430 nM	5080 nM	CC(C)N1CCN(c2cccc([C@H]3[C@H](C(=O)NO)[C@@H]3c3ccccc3)c2)CC1 (racemic) [Compound 56b, (1R*,2R*,3R*)—N-Hydroxy-2-(3-(4-isopropylpiperazin-1-yl)phenyl)-3-phenylcyclopropanecarboxamide]
630 nM	1850 nM	O=C(NO)[C@@H]1[C@H](c2ccccc2)[C@H]1c1cccc(N2CCN3CCCC3C2)c1 (relative stereo) [Compound 56f, (1R*,2R*,3R*)-2-(3-(Hexahydropyrrolo[1,2-a]pyrazin-2(1H)-yl)phenyl)-N-hydroxy-3-phenylcyclopropanecarboxamide]
150 nM	2740 nM	Cc1cccc([C@H]2[C@H](C(=O)NO)[C@@H]2c2ccccc2)c1 (racemic) [Compound 18b, (1R*,2R*,3R*)—N-Hydroxy-2-phenyl-3-m-tolylcyclopropanecarboxamide]
90 nM	760 nM	CC(C)N1CCN(c2ccc([C@H]3[C@H](C(=O)NO)[C@@H]3c3ccccc3)cc2)CC1 (racemic) [Compound 56a, (1R*,2R*,3R*)—N-Hydroxy-2-(4-(4-isopropylpiperazin-1-yl)phenyl)-3-phenylcyclopropanecarboxamide]
150 nM	2250 nM	Cc1ccc([C@H]2[C@H](C(=O)NO)[C@@H]2c2ccccc2)cc1 (racemic) [Compound 18c, (1R*,2R*,3R*)—N-Hydroxy-2-phenyl-3-p-tolylcyclopropanecarboxamide]
220 nM	810 nM	O=C(NO)[C@@H]1[C@H](c2ccccc2)[C@H]1c1ccc(-c2ncc(C3CC3)cn2)cc1 (racemic) [Compound 50c, (1R*,2R*,3R*)-2-(4-(5-Cyclopropylpyrimidin-2-yl)phenyl)-N-hydroxy-3-phenylcyclopropanecarboxamide]
110 nM	660 nM	O=C(NO)[C@@H]1[C@H](c2ccccc2)[C@H]1c1ccc(-c2ccnnc2)cc1 (racemic) [Compound 50g, (1R*,2R*,3R*)—N-Hydroxy-2-phenyl-3-(4-(pyridazin-4-yl)phenyl)cyclopropanecarboxamide]
260 nM	1430 nM	CN1CCOc2cc(-c3ccc([C@H]4[C@H](C(=O)NO)[C@@H]4c4ccccc4)cc3)ccc21 [Compound 54c, (1R,2R,3R)—N-hydroxy-2-(4-(4-methyl-3,4-dihydro-2H-benzo[b][1,4]oxazin-7-yl)phenyl)-3-phenylcyclopropanecarboxamide]
